Measurements as given in patent US20190185479A1, “BICYCLIC NITROGENATED HETEROCYCLIC COMPOUND” (MITSUBISHI TANABE PHARMA CORPORATION, priority 2016, published 2019).

Target: T1, Human PDE7B (hPDE7B) (Homo sapiens, UniProt Q9NP56)
T1 construct: made in house; host or cells: COS-7 cells
Assay: Measurement of PDE7 inhibitory activity (Experimental Example 1; residual cAMP, LANCE Ultra cAMP TR-FRET)
Format: biochemical
Conditions: cAMP 3 nmol/L, room temperature 60 minutes
Experimental: Human PDE7B (hPDE7B) was isolated from COS-7 cells transfected with plasmids encoding hPDE7B according to the method described in a reference, Biochemical and Biophysical Research Communication, 271, p. 575-583 (2000). The resulting enzyme solution was used in the PDE assay.
PDE7 inhibitory assay was carried out by reacting the mixture of a compound, hPDE7B, and cAMP, and measuring the residual cAMP by a detection method using LANCE (registered trademark) Ultra cAMP Detection Kit (ParkinElmer). The compound was dissolved in DMSO, and diluted so that the concentration would become 50 times of the final concentration. The hPDE7B and cAMP were diluted with an assay buffer (50 mmol/L Tris-HCl, 1 mmol/L MgCl2, 0.1% BSA, 0.5 mmol/L DTT, pH7.5) so that the hPDE7B would have an appropriate enzyme activity and the concentration of cAMP would become 6 nmol/L. To a 96 well plate were added the compound (2 μL) (DMSO final concentration: 2%), hPDE7B (48 μL), and cAMP (50 μL) (concentration at the reaction: 3 nmol/L), and the resulting mixture was reacted at room temperature for 60 minutes. The reaction solution (20 μL) was subjected to a TR-FRET method according to the protocol specified by the kit to measure the concentration of the residual cAMP. In the assay, to a tracer solution specified by the kit was added 0.5 mmol/L of 3-isobutyl-1-methylxanthine (IBMX, nonselective PDE inhibitor) in order to stop the PDE enzyme reaction after the completion of reaction until the measurement.
The reaction without a compound was defined as “0% inhibition”, the reaction without hPDE7B was defined as “100% inhibition”, and the inhibition rate of the compound was calculated by the following equation.
Inhibition rate of compound (%)={(Residual cAMP concentration at the addition of compound−Residual cAMP concentration in 0% inhibition)/(Residual cAMP concentration in 100% inhibition−Residual cAMP concentration in 0% inhibition)}×100

T1 sequence (Q9NP56 whole entry): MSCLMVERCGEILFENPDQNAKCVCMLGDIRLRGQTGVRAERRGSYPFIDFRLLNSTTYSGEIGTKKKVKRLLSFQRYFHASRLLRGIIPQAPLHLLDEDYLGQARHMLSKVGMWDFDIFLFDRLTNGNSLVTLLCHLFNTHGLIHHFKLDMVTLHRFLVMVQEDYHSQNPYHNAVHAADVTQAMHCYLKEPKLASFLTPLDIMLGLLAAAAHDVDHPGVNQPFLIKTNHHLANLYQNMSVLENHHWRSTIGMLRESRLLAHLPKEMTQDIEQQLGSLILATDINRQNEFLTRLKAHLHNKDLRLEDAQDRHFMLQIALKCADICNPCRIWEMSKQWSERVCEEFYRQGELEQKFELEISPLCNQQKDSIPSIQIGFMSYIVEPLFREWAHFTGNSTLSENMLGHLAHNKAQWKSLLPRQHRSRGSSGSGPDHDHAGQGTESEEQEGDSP

Row | SMILES | IC50
1 | CC1CCN(c2nnc3c(N)nccn23)CC1C (mixture of isomers) [Example 55, 3-(3,4-dimethylpiperidin-1-yl) [1,2,4]triazolo[4,3-a]pyrazin-8-amine] | 0.03 µM
2 | CC1CCCCC1n1nnc2c(N)ncnc21 (racemic) [Example 1, 3-(trans-2-methylcyclohexyl)-3H-[1,2,3]triazolo[4,5-d]pyrimidin-7-amine] | 0.08 µM
3 | Nc1nccn2c(C3CCCc4ccccc43)nnc12 (racemic) [Example 17, 3-(1,2,3,4-tetrahydronaphthalen-1-yl)-[1,2,4]triazolo[4,3-a]pyrazin-8-amine] | 0.32 µM
4 | CCC1CCCCN1c1nnc2c(N)nccn12 (racemic) [Example 23, 3-(2-ethylpiperidin-1-yl) [1,2,4]triazolo[4,3-a]pyrazin-8-amine] | 0.04 µM
5 | CC1CC(C)CN(c2nnc3c(N)nccn23)C1 (racemic) [Example 53, 3-[trans-3,5-dimethylpiperidin-1-yl][1,2,4]triazolo[4,3-a]pyrazin-8-amine] | 0.02 µM
6 | CC1CCC(C)N(c2nnc3c(N)nccn23)C1 (racemic) [Example 58, 3-(2,5-dimethylpiperidin-1-yl) [1,2,4]triazolo[4,3-a]pyrazin-8-amine] | 0.02 µM
7 | CC1CCC(C)N(c2nnc3c(N)nccn23)C1 (racemic) [Example 59, 3-(2,5-dimethylpiperidin-1-yl) [1,2,4]triazolo[4,3-a]pyrazin-8-amine] | 0.24 µM
8 | CC1CCC(C)N(c2nnc3c(N)ncc(C#N)n23)C1 (racemic) [Example 60, 8-amino-3-(2,5-dimethylpiperidin-1-yl) [1,2,4]triazolo[4,3-a]pyrazine-5-carbonitrile] | < 0.01 µM
9 | CC1CCC(C)(C)CN1c1nnc2c(N)nccn12 (racemic) [Example 65, 3-(2,5,5-trimethylpiperidin-1-yl) [1,2,4]triazolo[4,3-a]pyrazin-8-amine] | < 0.01 µM
10 | CC1(C)CCCC(c2nnc3c(N)ncnn23)C1 (racemic) [Example 73, 3-(3,3-dimethylcyclohexyl) [1,2,4]triazolo[3,4-f][1,2,4]triazin-8-amine] | 0.001 µM
11 | CC1CCC(F)(F)CC1c1nnc2c(N)ncnn12 (racemic) [Example 76, 3-(cis-5,5-difluoro-2-methylcyclohexyl) [1,2,4]triazolo[3,4-f][1,2,4]triazin-8-amine] | < 0.01 µM
12 | Nc1nccn2c(C3CCc4ccccc4C3)nnc12 (racemic) [Example 77, 3-(1,2,3,4-tetrahydronaphthalen-2-yl)-[1,2,4]triazolo[4,3-a]pyrazin-8-amine] | 0.31 µM
13 | CCCC1CCCCN1c1nnc2c(N)nccn12 (racemic) [Example 79, 3-(2-propylpiperidin-1-yl)-[1,2,4]triazolo[4,3-a]pyrazin-8-amine] | 0.26 µM
14 | Nc1ncnc2c1nnn2[C@H]1CCC[C@@H](C(F)(F)F)C1 (racemic) [Example 87, 3-[cis-3-(trifluoromethyl)cyclohexyl]-3H-[1,2,3]triazolo[4,5-d]pyrimidin-7-amine] | 0.03 µM
15 | CC1CCCC(n2nnc3c(N)ncnc32)C1 (racemic) [Example 94, 3-(trans-3-methylcyclohexyl)-3H-[1,2,3]triazolo[4,5-d]pyrimidin-7-amine] | 0.06 µM
16 | CC1CCCCC1n1nnc2c(N)ncnc21 (racemic) [Example 95, 3-(cis-2-methylcyclohexyl)-3H-[1,2,3]triazolo[4,5-d]pyrimidin-7-amine] | 0.04 µM
17 | Nc1ncnc2c1nnn2C1CCCCC1C(F)(F)F (racemic) [Example 96] | 0.95 µM
18 | Nc1ncnc2c1nnn2C1CCCCC1F (racemic) [Example 97, 3-(cis-2-fluorocyclohexyl)-3H-[1,2,3]triazolo[4,5-d]pyrimidin-7-amine] | 0.05 µM
19 | CC1CCCC(n2nnc3c(N)ncnc32)C1 (racemic) [Example 98, 3-(cis-3-methylcyclohexyl)-3H-[1,2,3]triazolo[4,5-d]pyrimidin-7-amine] | 0.08 µM
